The values that follow come from ChEMBL document CHEMBL3430912, “GSK Tres Cantos Anti-Kinetoplastid Screening (TCAKS) Data”.

In series [1] the test system is Trypanosoma cruzi. The experiment in a line: GSK_TCAKS: pIC50 Trypanosoma cruzi viability assay using beta-GAL activity. This assay was run at single shot at 5uM compound concentration per well. The biological reagents consisted of NIH-3T3 host cells and trypomastigotes parasitic cells; both cell types were set to a 3.3 * 10^5 cells/mL dilution in assay DMEM by means of a CASY cell counter device using a 60um capillary. 6 uL of the mixture were dispensed per well (about 1 * 10^3 host-cells and 1 * 10^3 parasites) with a Multidrop Combi dispenser. […] In all wells, the percentage of DMSO never exceeded 0.5%. Plates incubated for four days at 37C, 5% CO2. The substrate used for the assay fluorescence intensity (FLINT) readout was resorufin-beta-D-galactopiranoside (Sigma-Aldrich) at 5uM per well. It was diluted in PBS supplemented with the soft detergent Igepal (Fluka). As to conditions: Tulahuen, NIH3T3. The format is functional, organism-based, Mus musculus.

Series [2] relates to Trypanosoma cruzi. The experiment in a line: (§1) GSK_TCAKS: pIC50 Trypanosoma cruzi Imaging: Infected Cells. […] Cells were then washed once with PBS before infection. T. cruzi trypomastigotes, collected at days 5 to 8 after infection from LLC-MK2 parasite infected cultures, were allowed to swim out for 4h at 37C from a centrifuged pellet (2,500 rpm/10 min/room temperature). Trypomastigotes were then collected and counted in a CASY Cell Counter. Trypomastigotes, in supplemented DMEM, were added to H9c2 cultures in a multiplicity of infection of 1 and incubated for 18 h. Cells were washed once with PBS before incubation of the infected H9c2 monolayer with trypsin (Life-Technologies) to detach cells from the flask. Cells were counted in a CASY Cell Counter using a 150 um capillary and their density set at 5 * 10^4 cells per mL in supplemented assay DMEM. Infected H9c2 were dispensed into 384-well poly-lysine coated assay plates at 50uL per well using a Multidrop Combi dispenser. After seeding them, the plates were incubated at 37C, 5% CO2 for 72h. Cultures were then fixed and stained by addition of 50 uL of a solution containing 8% formaldehyde and 4 uM DRAQ5 DNA dye (BioStatus, UK) per well. […] Five images were collected per well for reliable statistical analysis. Automated image analysis was performed with a script developed on Acapella High Content Imaging and Analysis Software (PerkinElmer). Output: percentage of infected cells per well as a second infection marker. The series is classed as functional, organism-based, Rattus norvegicus. As to conditions: H9c2, 4 h.

Series [3] concerns Trypanosoma cruzi. The experiment in a line: GSK_TCAKS: pIC50 Trypanosoma cruzi Imaging: Amastigotes/Cell. […] Cells were then washed once with PBS before infection. T. cruzi trypomastigotes, collected at days 5 to 8 after infection from LLC-MK2 parasite infected cultures, were allowed to swim out for 4h at 37C from a centrifuged pellet (2,500 rpm/10 min/room temperature). Trypomastigotes were then collected and counted in a CASY Cell Counter. Trypomastigotes, in supplemented DMEM, were added to H9c2 cultures in a multiplicity of infection of 1 and incubated for 18 h. Cells were washed once with PBS before incubation of the infected H9c2 monolayer with trypsin (Life-Technologies) to detach cells from the flask. Cells were counted in a CASY Cell Counter using a 150 um capillary and their density set at 5 * 10^4 cells per mL in supplemented assay DMEM. Infected H9c2 were dispensed into 384-well poly-lysine coated assay plates at 50uL per well using a Multidrop Combi dispenser. After seeding them, the plates were incubated at 37C, 5% CO2 for 72h. Cultures were then fixed and stained by addition of 50 uL of a solution containing 8% formaldehyde and 4 uM DRAQ5 DNA dye (BioStatus, UK) per well. […] Five images were collected per well for reliable statistical analysis. Automated image analysis was performed with a script developed on Acapella High Content Imaging and Analysis Software (PerkinElmer). Output: number of amastigotes per cell as infection level measurement. The format is functional, organism-based, Rattus norvegicus. To be noted: H9c2, 4 h.

Series [4] deals with Trypanosoma cruzi. The series is described as §1, with “H2C9” for “Trypanosoma cruzi”, “H9c2 Host Cardiomyocytes.” for “Infected Cells.”, “Number” for “percentage”, “H9c2 Host Cardiomyocytes nuclei to determine drug-related cytotoxicity.” for “infected cells per well as a second infection marker.”. To be noted: H9c2, 4 h. The format is functional, organism-based, Rattus norvegicus.

Series [5] relates to Leishmania donovani. The experiment in a line: GSK_TCAKS: pIC50 Leishmania donovani viability assay using fluorescence intensity. Assay plates (1536-well) were prepared by adding 30nL per well of compound. For single shot assay, the final compound concentration was 5uM. […] Briefly, eGFP LdBOB axenic amastigotes were harvested, fixed and counted in a CASY cell counter (Roche-Applied Science). A final concentration of 1.5 * 10^5 cells per well were prepared in amastigote media containing 500 U/mL penicillin/streptomycin (Invitrogen) and 6uL was dispensed to each experimental well using a Multidrop Combi dispenser (Thermo Scientific). 6uL of assay media was dispensed to control columns used as reference for 100% compound response. Following incubation for 72 h at 37C, 5% CO2, 2 uL of resazurin was added to each well at a final concentration of 0.5 mM in phosphate buffered saline (PBS) with IGEPAL (Sigma-Aldrich), 0.05% (v/v). The series is classed as functional, organism-based. On the technique in general: The colour change of resazurin is a common sign of viable cells or microbes.

Series [6] relates to Leishmania donovani. The experiment in a line: GSK_TCAKS: pIC50 Leishmania donovani Imaging: Infected Macrophages. Assay plates (384-well) were prepared by adding 250nL of compound to each well. For single shot assay, the final compound concentration was 5 uM. […] Automated image analysis was performed with a script developed on Acapella High Content Imaging and Analysis Software (PerkinElmer). Output: Percent of infected macrophage cells were reported for each well. The series is classed as functional, organism-based, Homo sapiens. As to conditions: THP-1.

Series [7] concerns Leishmania donovani. The experiment in a line: GSK_TCAKS: pIC50 Leishmania donovani Imaging: Amastigotes/Macrophages. Assay plates (384-well) were prepared by adding 250nL of compound to each well. For single shot assay, the final compound concentration was 5 uM. […] Automated image analysis was performed with a script developed on Acapella High Content Imaging and Analysis Software (PerkinElmer). Output: Average number of amastigotes per macrophage cell were reported for each well. As to conditions: THP-1. The format is functional, organism-based, Homo sapiens.

Series [8] has as its system Leishmania donovani. Nature of the series: GSK_TCAKS: pIC50 Leishmania donovani Imaging: THP-1 Host Macrophages. Assay plates (384-well) were prepared by adding 250nL of compound to each well. For single shot assay, the final compound concentration was 5 uM. […] Automated image analysis was performed with a script developed on Acapella High Content Imaging and Analysis Software (PerkinElmer). Output: THP-1 cell count were reported for each well. The format is functional, organism-based, Homo sapiens.

Series [9] relates to Trypanosoma brucei brucei. Nature of the series: GSK_TCAKS: pIC50 Trypanosoma brucei viability assay using fluorescence intensity. Assay plates (1536-well) were prepared by dispensing 25nL of compound solution per well using an Echo acoustic dispenser (Labcyte). As to conditions: Lister 427, 2 h. The series is classed as functional, organism-based.
In series [10] the test system is Trypanosoma brucei brucei. The experiment in a line: GSK_TCAKS: pIC50 Trypanosoma brucei viability assay using luminiscence. Assay plates (1536-well) were prepared. T. brucei cultures were harvested and counted in a CASY cell counter. A parasite suspension was prepared at a final concentration of 5 * 10^4 cells/mL in complete HMI9 medium and 6uL was dispensed to all wells containing compounds using a Multidrop Combi dispenser. 6uL of HMI9 media with 0.4% DMSO were dispensed to control columns. Plates were incubated for 24 h at 37C, 5% CO2 then tempered for 10 min at room temperature. ATP content was quantified by adding 4 uL of CellTiter-Glo Reagent (Promega) according to the manufacturer's instructions. Luminescence was measured using a ViewLux. The series is classed as functional, organism-based. As to conditions: Lister 427, CASY. On the technique in general: In ATP-based viability assays light output follows the ATP content of the culture.

The nature of series [11]: GSK_TCAKS: pIC50 HepG2 human cell line viability assay using luminiscence. […] Seeding density was checked to ensure that new mono-layers were not more than 50% confluent at the time of harvesting. Cell suspension was added to 500 mL of the same medium at a final density of 1.2 * 10^5 cells/mL. This cell suspension was dispensed (25 uL, 3000 cells per well) into 384-well clear-bottom plates using a Multidrop Combi dispenser. Prior to addition of the cell suspension, the screening compounds (250 nL) were pre-dispensed into the plates with an Echo liquid handler. Plates were incubated for 48 h at 37C, 5% CO2. After incubation, plates equilibrated at room temperature for 30 min before proceeding to develop the luminescent signal. The signal developer, CellTiter-Glo Reagent, was allowed to equilibrate at room temperature for 30 min and added to the plates (25uL per well) using a Multidrop Combi dispenser. Plates were left for 10 min at room temperature for stabilization and then read using a ViewLux. The format is toxicity, cell-based.

Another series has as its system NIH3T3. The experiment in a line: GSK_TCAKS: pIC50 NIH 3T3 cell line viability assay using luminiscence. Tissue culture surface treated assay plates (1536-well) were used. […] The 100% cells survival control was determined exposing the host-cells to a 0.5% DMSO concentration, whereas the 100% toxicity control was achieved by seeding the cells in presence of Amphotericin B at 50uM. Plates were incubated for four days at 37C, 5% CO2. The assay readout was developed by addition of 5uL of CellTiter-Glo Reagent following the manufacturer's instructions. Luminiscence was measured using a ViewLux. The series is classed as functional, cell-based. To be noted: Mus musculus, NIH3T3, 96 h.

In series [12] the target is Sterol 14-alpha demethylase (Trypanosoma cruzi (strain CL Brener), UniProt Q7Z1V1). The experiment in a line: GSK_TCAKS: pIC50 CYP51 from Trypanosoma cruzi. The format is functional.
Sequence of Sterol 14-alpha demethylase (Q7Z1V1 whole entry): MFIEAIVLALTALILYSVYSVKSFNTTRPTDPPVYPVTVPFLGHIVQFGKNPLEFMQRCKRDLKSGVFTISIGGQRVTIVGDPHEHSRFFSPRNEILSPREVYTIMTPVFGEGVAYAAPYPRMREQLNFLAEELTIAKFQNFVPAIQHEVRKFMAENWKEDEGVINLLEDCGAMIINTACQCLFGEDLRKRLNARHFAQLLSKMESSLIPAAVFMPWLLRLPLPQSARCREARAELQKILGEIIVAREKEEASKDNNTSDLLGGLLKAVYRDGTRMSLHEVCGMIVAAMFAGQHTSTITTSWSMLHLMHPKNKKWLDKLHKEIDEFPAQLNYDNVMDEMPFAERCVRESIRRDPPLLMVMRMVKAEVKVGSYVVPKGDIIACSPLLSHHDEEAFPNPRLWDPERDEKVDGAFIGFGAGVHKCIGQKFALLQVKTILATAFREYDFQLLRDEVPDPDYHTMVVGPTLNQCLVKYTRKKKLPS

The term IC50 denotes the point on the concentration scale where inhibition reaches its midpoint. Take `CN(Cc1cc2ccccc2s1)c1ncc2c(N)nc(N)nc2n1`: the IC50 in the series with Trypanosoma cruzi [1] was 2 µM; in the series with Trypanosoma cruzi [2], 3.16 µM; with Trypanosoma cruzi [3] it was 0.794 µM; in the series on Trypanosoma cruzi [4], 20 µM; in the series on Leishmania donovani [5], 31.6 µM; with Leishmania donovani [6], 31.6 µM. Besides, the IC50 with Leishmania donovani [7] is 25.1 µM; in the series on Leishmania donovani [8] it was 25.1 µM; in [9] it was 31.6 µM; in series [10] it was 25.1 µM; in the series on NIH3T3, 25.1 µM; in series [12] it was greater than 100 µM. This compound also had an IC50 at 48 h in series [11] of 39.8 µM.
On to `Clc1ccc(OCCN2CCCCC2c2cccnc2)c(Cl)c1` (stereo not given), for which the IC50 in the series on Trypanosoma cruzi [1] is 0.398 µM; in the series on Trypanosoma cruzi [2] it was 0.2 µM; in the series on Trypanosoma cruzi [3] it was 0.158 µM; with Trypanosoma cruzi [4], greater than 50.1 µM; in the series on Leishmania donovani [5], 5.01 µM; with Leishmania donovani [6], greater than 50.1 µM. The IC50 with Leishmania donovani [7] is 5.01 µM; in the series on Leishmania donovani [8], greater than 50.1 µM; in series [9], 31.6 µM; in [10], greater than 39.8 µM; with NIH3T3 it was 25.1 µM; in [12], 0.0631 µM. For the same compound, the IC50 at 48 h in series [11] was 79.4 µM.
Consider `O=C(NCCNc1noc(-c2ccc([N+](=O)[O-])cc2)n1)c1ccc(Cl)cc1`, for which the IC50 in the series with Trypanosoma cruzi [1] was 2 µM; in the series on Trypanosoma cruzi [2] it was greater than 50.1 µM; with Trypanosoma cruzi [3], 1.26 µM; in the series with Trypanosoma cruzi [4] it was greater than 50.1 µM; with Leishmania donovani [5], greater than 50.1 µM; in the series on Leishmania donovani [6], greater than 50.1 µM. In addition, the IC50 with Leishmania donovani [7] is greater than 50.1 µM; in the series with Leishmania donovani [8], 15.8 µM; in series [9], 3.16 µM; in [10] it was greater than 39.8 µM; in the series with NIH3T3, greater than 50.1 µM; in series [12], greater than 100 µM. The compound further had an IC50 at 48 h in [11] greater than 100 µM.
Consider `CN(Cc1cccnc1)Cc1ccc(N2CCN(C(=O)C3(c4ccc(Cl)cc4)CC3)CC2)nc1`, for which the IC50 with Trypanosoma cruzi [1] is 0.501 µM; in the series on Trypanosoma cruzi [2] it was 1.58 µM; in the series with Trypanosoma cruzi [3] it was 1.26 µM; in the series with Trypanosoma cruzi [4] it was greater than 50.1 µM; in the series on Leishmania donovani [5] it was 31.6 µM; in the series on Leishmania donovani [6] it was greater than 50.1 µM. Moreover, the IC50 with Leishmania donovani [7] is greater than 50.1 µM; in the series with Leishmania donovani [8], 10 µM; in series [9], 31.6 µM; in series [10], 25.1 µM; in the series with NIH3T3 it was 7.94 µM; in [12], 0.158 µM. In [11], the IC50 at 48 h is greater than 100 µM.
For `COc1ccc(S(=O)(=O)NC(C)C)cc1Nc1ncc(-c2cccc(F)c2)cn1`, the IC50 in the series with Trypanosoma cruzi [1] is 0.631 µM; in the series on Trypanosoma cruzi [2], 0.398 µM; with Trypanosoma cruzi [3], 0.316 µM; with Trypanosoma cruzi [4], greater than 50.1 µM; with Leishmania donovani [5] it was 6.31 µM; in the series on Leishmania donovani [6] it was greater than 50.1 µM. Further, the IC50 is greater than 50.1 µM in the series on Leishmania donovani [7]; greater than 50.1 µM in the series on Leishmania donovani [8]; 20 µM in [9]; greater than 39.8 µM in series [10]; 5.01 µM in the series with NIH3T3; greater than 100 µM in [12]. Moreover, in series [11], the IC50 at 48 h was greater than 100 µM.
